Measurements published in patent US4680285A, “Treatment of malignant tumors with 2-(β-D-ribofuranosylthiazole-4-carboxamide related compounds” (priority 1985, dated 1987).
“Also recorded” adds a separate entry of the source. Like-named read-outs stand apart in the source and are kept apart here.

Experiments:
viruses = conditions: cited from earlier work
malignant tumors [1] = conditions: known from literature; cited from earlier work
type 3 rhinovirus = conditions: cited from earlier work
[2] = tested on: type 3 parainfluenza virus; conditions: cited from earlier work
virus = conditions: cited from earlier work
malignant tumors [3] = assay: antitumor activity in vivo (general statements); conditions: summary statements
[4] = tested on: P388 lymphocytic leukemia; assay: P388 lymphocytic leukemia in vivo, median survival, 30-day test (Examples 7 and 8); set-up: species or system CD2 F1 female mice; conditions: for Percent Treated Animals/Control Animals / Treated Group Survival Time (median): Ex. 7a/8, saline with tween/80; for Treated Group Survival Time (median): control 12.6
Description: For examples 7 and 8, CD2 F1 female mice were used and challenged with P388 lymphocytic leukemia tumors. […] The test period was for thirty days in both Examples 7 and 8.
For Examples 7 and 8, as well as Examples 9 and 10 below, any animal of the drug treated group which survived beyond the end of the testing period was then evaluated and placed in one of three groups. The first group was designated as cured, meaning the animal was successfully cured of the tumor. The second group designation was no-takes, meaning survival of the animal was considered to be due to failure of tumor implant. The remaining group was designated as tumor survivors meaning the animals lived beyond the test cut-off date but could not be classified as either cured or no-takes.
For both Examples 7 and 8, thirty animals were used as the control group and six animals each were used at each dose level indicated in tables 3 and 4 below in the drug treated groups. In both Examples 7 and 8, for both the control group and the drug treated groups, tumors were induced by IP inoculation of tumor seed cells on day zero followed by initiation of drug treatment on day one. For both Examples 7a and 8, saline with tween/80 was used as the drug vehicle. For Examples 7b and 7c, water was used as the drug vehicle.
In both the control group and the drug treated group in Examples 7 and 8, the test animals were inoculated on day zero IP with 10^6 seed cells of P388 lymphocytic leukemia. In both Examples 7 and 8, treatment of the drug group was started on day one and the drug was given IP once daily for nine days. Day six was utilized as the cut-off data for death attributable to toxicity of the drug. […] Efficacy of treatment was determined by comparing median survival time of the drug treated animals compared to median survival time of the control animals, and is expressed as percentage increase of treated animals/control animals (T/C) as per Example 5.
In this example drug treated animals were injected IP with the dose level noted in Table 3 below. Six animals were treated at each dose level. No control animals survived beyond day 18 with a median death date of day 12.6.
This examples was performed as per Example 7a at dose levels as noted in table 3b below. A survivor at both the 700 and 800 mg/Kg level was judged as cured. No controls survived beyond day 12 and the mean death day of the control group was day 11.
This example was run as per Example 7a above at dose levels noted in Table 3c below. All controls were dead by day 14 with a mean death day of day 11.9. At the 500 mg/Kg level, one animal was judged as a cure.
Compound 2, 2-(2,3,5-tri-O-acetyl-β-D-ribofuranosyl)thiazole-4-carboxamide was tested as per Example 7a above at dose levels noted in Table 4 below. No controls survived beyond day 18 with an average death date of day 12.6.

[5] = tested on: P388 lymphocytic leukemia; format: in vivo, CD2 F1 female mice; conditions: for Percent Treated Animals/Control Animals / Treated Group Survival Time (mean): nine days; for Treated Group Survival Time (mean): control 10.2
Excerpt: Compound 2, 2-(2,3,5-tri-O-acetyl-β-D-ribofuranosyl)thiazole-4-carboxamide was screened in a manner similar to that shown in Example 5, however, the tumor system used as the test tumor was P388 lymphocytic leukemia. 10^6 seed cells were used to initiate the tumor in both the control group and the drug treated group of animals. The same strain of mice was used except female mice were substituted for males. Test results were based on mean survival time and are expressed as T/C percentages (treated animals/control animals) as per Example 5.
In the drug treated animals, treatment was initiated one day after tumor inoculation and the drug was given at the dose levels noted below in table 2. Drug treatment was for nine days and drug toxicity, as in Example 5, was measured on day six.
Average day of death for the control group was 10.2 days whereas at the lowest level of drug treatment the treated animals survived for more than 15 days. As with Example 5, 125% increase in longevity of treated animals over control animals was taken as indicative of positive drug response.

[6] = tested on: type 1 herpes simplex virus; conditions: cited from earlier work
L-1210 lymphoid leukemia = L-1210 lymphoid leukemia in vivo, mean survival (Example 11); set-up: species or system CD2 F1 male mice; conditions: for Percent Treated Animals Control Animals / Treated Group Survival Time (mean): saline
Description: For Example 9a and 9b, CD2 F1 male mice were used and challenged with L-1210 lymphoid leukemia. […] The test period was for thirty days. Test results are expressed as T/C as per Example 5.
In both the control groups and the drug treated groups in Examples 9a and 9b, the test animals were inoculated on day zero IP with 10^6 seed cells of L-1210 lymphoid leukemia. For Example 9a, drug treatment was started on day one and compound 1 given once daily for nine days. Day five was utilized as the cutoff date for death attributable to toxicity of the drug. […] Efficacy of treatment was determined by comparing mean survival time of drug treated animals with mean survival time of the control animals and is expressed as percentage increase of treated animals/control animals (T/C) as per Example 5.
The compound test dosage levels are as noted in tables 7a and 7b below for Example 11a and 11b respectively. In these examples, thirty-six control animals were used and six test animals each at the drug dose levels as is shown in tables 7a and 7b. Saline was used as the drug vehicle.
For both the control groups and the drug test groups, tumors were induced by IP inoculation of tumor seed cells on day zero followed by initiation of drug treatment on day one wherein compound 3 was given once daily for 5 days. Test results are expressed as T/C as per example 5.

## NC(=O)c1ncn([C@@H]2O[C@H](CO)[C@@H](O)[C@H]2O)n1 [RIBAVIRIN, reference compound]
viruses
  in vitro antiviral activity: active in vitro antiviral agent
Malignant tumors [1]
  antitumor activity: no significant antitumor activity

## CC(=O)OC[C@H]1O[C@@H](c2nc(C(N)=O)cs2)[C@H](OC(C)=O)[C@@H]1OC(C)=O [Compound 2, 2-(2,3,5-Tri-O-Acetyl-β-D-Ribofuranosyl)thiazole-4-Carboxamide]
Type 3 rhinovirus
  in vitro antiviral activity: negative
[2]
  in vitro antiviral activity: negative
virus; in vivo antiviral tests
  number of deaths of test animals vs placebo control animals: equal to or exceeded the number of deaths of the placebo control animals
virus; in vivo
  in vivo antiviral activity: negative
Malignant tumors [3]
  antitumor activity: effective antitumor agent when injected intraperitoneally
[4]; 12.5 mg/Kg IP once daily x9
  Percent Treated Animals/Control Animals: 110%
  Treated Group Survival Time (median): 13.7 days
[4]; 25 mg/Kg IP once daily x9
  Percent Treated Animals/Control Animals: 113%
  Treated Group Survival Time (median): 14.3 days
[4]; 50 mg/Kg IP once daily x9
  Percent Treated Animals/Control Animals: 121%
  Treated Group Survival Time (median): 15.3 days
[4]; 100 mg/Kg IP once daily x9
  Percent Treated Animals/Control Animals: 145%
  Treated Group Survival Time (median): 18.3 days
[4]; 200 mg/Kg IP once daily x9
  Percent Treated Animals/Control Animals: 150%
  Treated Group Survival Time (median): 19.0 days
[4]; 400 mg/Kg IP once daily x9
  Percent Treated Animals/Control Animals: 161%
  Treated Group Survival Time (median): 20.3 days
[4]; Ex. 7a/8, 50 mg/Kg, thirty days
  surviving animals judged as no-take: one surviving animal was judged as a no-take
[4]; Examples 7 and 8, multiple dose
  activity against P388 lymphocytic leukemia: active antitumor agents; also recorded: active against P388 lymphocytic leukemia
[4]; P388
  DN 2 (Decision Network) criteria of the National Cancer Institute: successfully passed
[5]; 50 mg/Kg IP
  Percent Treated Animals/Control Animals: 150%
  Treated Group Survival Time (mean): 15.3 days
[5]; 100 mg/Kg IP
  Percent Treated Animals/Control Animals: 176%
  Treated Group Survival Time (mean): 18.0 days
[5]; 200 mg/Kg IP
  Percent Treated Animals/Control Animals: 179%
  Treated Group Survival Time (mean): 18.3 days
[5]; lowest level of drug treatment, control 10.2 days
  survival of treated animals: more than 15 days
[6]
  in vitro antiviral activity: only moderate activity

## NC(=O)c1csc([C@@H]2O[C@H](COP(=O)(O)O)[C@@H](O)[C@H]2O)n1 [Compound 3, 2-(5-O-Phosphoryl-β-D-Ribofuranosyl)thiazole-4 Carboxamide]
L-1210 lymphoid leukemia; Ex. 11a, 50 mg/Kg once daily x5
  Percent Treated Animals Control Animals: 136%
L-1210 lymphoid leukemia; Ex. 11a, 50 mg/Kg once daily x5, control 8.3
  Treated Group Survival Time (mean): 11.3 days
L-1210 lymphoid leukemia; Ex. 11a, 100 mg/Kg once daily x5
  Percent Treated Animals Control Animals: 186%
L-1210 lymphoid leukemia; Ex. 11a, 100 mg/Kg once daily x5, control 8.3
  Treated Group Survival Time (mean): 15.5 days
L-1210 lymphoid leukemia; Ex. 11a, 200 mg/Kg once daily x5
  Percent Treated Animals Control Animals: 259%
L-1210 lymphoid leukemia; Ex. 11a, 200 mg/Kg once daily x5, control 8.3
  Treated Group Survival Time (mean): 21.5 days
L-1210 lymphoid leukemia; Ex. 11a, 400 mg/Kg once daily x5
  Percent Treated Animals Control Animals: 183%
L-1210 lymphoid leukemia; Ex. 11a, 400 mg/Kg once daily x5, control 8.3
  Treated Group Survival Time (mean): 15.2 days
L-1210 lymphoid leukemia; Ex. 11a, 800 mg/Kg once daily x5
  Percent Treated Animals Control Animals: 196%
L-1210 lymphoid leukemia; Ex. 11a, 800 mg/Kg once daily x5, control 8.3
  Treated Group Survival Time (mean): 16.3 days
L-1210 lymphoid leukemia; Ex. 11b, 50 mg/Kg once daily x5
  Percent Treated Animals Control Animals: 128%
L-1210 lymphoid leukemia; Ex. 11b, 50 mg/Kg once daily x5, control 10.1
  Treated Group Survival Time (mean): 13.0 days
L-1210 lymphoid leukemia; Ex. 11b, 100 mg/Kg once daily x5
  Percent Treated Animals Control Animals: 121%
L-1210 lymphoid leukemia; Ex. 11b, 100 mg/Kg once daily x5, control 10.1
  Treated Group Survival Time (mean): 12.3 days
L-1210 lymphoid leukemia; Ex. 11b, 200 mg/Kg once daily x5
  Percent Treated Animals Control Animals: 145%
L-1210 lymphoid leukemia; Ex. 11b, 200 mg/Kg once daily x5, control 10.1
  Treated Group Survival Time (mean): 14.7 days
L-1210 lymphoid leukemia; Ex. 11b, 400 mg/Kg once daily x5
  Percent Treated Animals Control Animals: 155%
L-1210 lymphoid leukemia; Ex. 11b, 400 mg/Kg once daily x5, control 10.1
  Treated Group Survival Time (mean): 15.7 days
L-1210 lymphoid leukemia; Ex. 11b, 600 mg/Kg once daily x5
  Percent Treated Animals Control Animals: 160%
L-1210 lymphoid leukemia; Ex. 11b, 600 mg/Kg once daily x5, control 10.1
  Treated Group Survival Time (mean): 16.2 days
L-1210 lymphoid leukemia; Examples 11a and 11b
  activity against L-1210 lymphoid leukemia: active against L-1210 lymphoid leukemia
L-1210 lymphoid leukemia; Examples 11a and 11b, 50-800 mg/Kg
  drug toxicity: No drug toxicity was noted
Malignant tumors [3]
  antitumor activity: effective in vivo antitumor agents

## NC(=O)c1ncn([C@@H]2O[C@H](COP(=O)(O)O)[C@@H](O)[C@H]2O)n1 [RIBAVIRIN 5' monophosphate]
Malignant tumors [1]
  antitumor activity: inactive as antitumor compounds
